Earlier results, collected in patent publication US20140342380A1, “VERIFYING THE SOURCE OF BIOLOGICAL SAMPLES; METHOD, COMPOSITION AND KIT THEREFOR” (priority 2011, published 2014).
Like-named read-outs stand apart in the source and are kept apart here.

Experiments:
[1] = cited from earlier work
[2] = cited from earlier work; remark: listed apart in the source

## CCCCCCCCCCCCOC(=O)CCSCCC(=O)OCCCCCCCCCCCC [Dilauryl thiodipropionate (DLTDP), Dilauryl thiodipropionate]
[1]; Table 1 note, species not stated
  metabolite(s) / form excreted in urine after ingestion: Dilauryl thiodipropionate (DLTDP), Ingested DLTDP was excreted in the urine as thiodipropionic

## O=C(OC[C@H]1O[C@@H](OC(=O)c2cc(O)c(O)c(OC(=O)c3cc(O)c(O)c(O)c3)c2)[C@H](OC(=O)c2cc(O)c(O)c(OC(=O)c3cc(O)c(O)c(O)c3)c2)[C@@H](OC(=O)c2cc(O)c(O)c(OC(=O)c3cc(O)c(O)c(O)c3)c2)[C@@H]1OC(=O)c1cc(O)c(O)c(OC(=O)c2cc(O)c(O)c(O)c2)c1)c1cc(O)c(O)c(OC(=O)c2cc(O)c(O)c(O)c2)c1 [Tannic acid]
[2]; Table 1 note, cited study in rat
  metabolite(s) found after ingestion: Tannic acid: metabolized to 4-0-Methylgallic acid (4-OMGA), pyrogallol (PY), and resorcinol

## C=CCc1ccc(O)c(OC)c1 [eugenol]
[2]; rat, in vivo
  metabolite(s) found after ingestion: eugenol clove leaf oil metabolized to Glucuronide and sulfate conjugates were identified in urine.

## inulin
[1]; general statement
  renal handling / detection in urine after consumption: readily passively filtered by the kidney, e.g., detected in the urine after consumption
